Measured values published in ChEMBL document CHEMBL5131418, “Streptooctatins A and B, fusicoccane-type diterpenoids with autophagic activity from Streptomyces sp. KCB17JA11” (Bioorg Med Chem Lett, 2022).
Active and inactive are the calls of the source. The calls are words filed in the database; no cut-off is given here.

Experiments:
HeLa [1] = test: Cytotoxicity against human HeLa cells assessed as reduction in cell viability up to 100 uM; type: toxicity, cell-based
HeLa [2] = test: Induction of autophagy in human HeLa cells assessed as increase in LC3-II protein expression level at 10 to 50 uM uM incubated for 24 hrs by western blot analysis; type: functional, cell-based; conditions: dose 10-50 µM
HeLa [3] = test: Cytotoxicity against human HeLa cells assessed as reduction in cell number at 100 uM; type: toxicity, cell-based
HeLa [4] = test: Induction of autophagy in human HeLa cells stably expressing EGFP-LC3 assessed as increase in EGFP-LC3 puncta formation at 25 uM incubated for 24 hrs by fluorescence microscopic analysis; type: functional, cell-based

Compound | Activity (HeLa [1]) | Activity (HeLa [2]) | Activity (HeLa [3]) | Activity (HeLa [4])
CC(C)[C@H]1CC[C@]2(C)C[C@@H]3[C@H](CO)C[C@@H](O)[C@H]3[C@@](C)(O)C/C=C/12 | Non-Toxic | – | – | –
CCC(=O)[C@@H](C)[C@H]1O[C@@](O)([C@H](C)C(=O)OC[C@@H](CO)[C@H]2CC[C@]3(C)C[C@@H]4[C@H](CO)C[C@@H](O)[C@H]4[C@@](C)(O)C/C=C/23)[C@H](C)C[C@H]1C | Non-Toxic | Active | Toxic | Active
CCCC(=O)[C@@H](C)[C@H]1O[C@@](O)([C@H](C)C(=O)OC[C@@H](CO)[C@H]2CC[C@]3(C)C[C@@H]4[C@H](CO)C[C@@H](O)[C@H]4[C@@](C)(O)C/C=C/23)[C@H](C)C[C@H]1C | Non-Toxic | Active | Toxic | Active
